The values below come from ChEMBL document CHEMBL3991601, “The target landscape of clinical kinase drugs” (Science, 2017).

In assay [1] the target is Deoxycytidine kinase (Homo sapiens, UniProt P27707).
The target in assay [2] is T1, Ribosyldihydronicotinamide dehydrogenase [quinone] (Homo sapiens, UniProt P16083).
T1 sequence (P16083 whole entry): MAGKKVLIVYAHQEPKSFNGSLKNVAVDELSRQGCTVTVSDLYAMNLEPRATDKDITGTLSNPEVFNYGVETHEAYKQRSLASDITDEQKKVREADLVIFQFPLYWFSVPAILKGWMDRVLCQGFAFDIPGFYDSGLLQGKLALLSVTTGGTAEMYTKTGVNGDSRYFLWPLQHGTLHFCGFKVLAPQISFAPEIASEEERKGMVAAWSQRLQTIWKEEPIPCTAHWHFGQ

Assay [3] addresses T2, NUAK family SNF1-like kinase 2 (Homo sapiens, UniProt Q9H093).
T2 sequence (Q9H093 whole entry): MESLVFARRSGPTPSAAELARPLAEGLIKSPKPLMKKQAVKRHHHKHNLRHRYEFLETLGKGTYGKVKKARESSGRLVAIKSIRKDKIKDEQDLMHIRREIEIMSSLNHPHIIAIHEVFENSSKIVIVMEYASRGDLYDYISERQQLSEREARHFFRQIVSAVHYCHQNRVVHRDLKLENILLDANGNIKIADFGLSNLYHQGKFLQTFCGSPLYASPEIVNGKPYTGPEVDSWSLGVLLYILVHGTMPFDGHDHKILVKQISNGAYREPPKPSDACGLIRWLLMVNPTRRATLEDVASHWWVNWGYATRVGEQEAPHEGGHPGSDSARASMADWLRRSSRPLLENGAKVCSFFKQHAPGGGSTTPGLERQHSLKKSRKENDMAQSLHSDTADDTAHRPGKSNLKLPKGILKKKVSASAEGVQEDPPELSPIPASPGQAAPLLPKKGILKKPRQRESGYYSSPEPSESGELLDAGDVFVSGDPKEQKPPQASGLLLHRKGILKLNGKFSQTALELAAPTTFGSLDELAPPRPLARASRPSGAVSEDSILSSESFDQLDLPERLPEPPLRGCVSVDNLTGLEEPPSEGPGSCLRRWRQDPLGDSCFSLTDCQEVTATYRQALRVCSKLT

The target in assay [4] is T3, Serine/threonine-protein kinase PLK4 (Homo sapiens, UniProt O00444).
T3 sequence (O00444 whole entry): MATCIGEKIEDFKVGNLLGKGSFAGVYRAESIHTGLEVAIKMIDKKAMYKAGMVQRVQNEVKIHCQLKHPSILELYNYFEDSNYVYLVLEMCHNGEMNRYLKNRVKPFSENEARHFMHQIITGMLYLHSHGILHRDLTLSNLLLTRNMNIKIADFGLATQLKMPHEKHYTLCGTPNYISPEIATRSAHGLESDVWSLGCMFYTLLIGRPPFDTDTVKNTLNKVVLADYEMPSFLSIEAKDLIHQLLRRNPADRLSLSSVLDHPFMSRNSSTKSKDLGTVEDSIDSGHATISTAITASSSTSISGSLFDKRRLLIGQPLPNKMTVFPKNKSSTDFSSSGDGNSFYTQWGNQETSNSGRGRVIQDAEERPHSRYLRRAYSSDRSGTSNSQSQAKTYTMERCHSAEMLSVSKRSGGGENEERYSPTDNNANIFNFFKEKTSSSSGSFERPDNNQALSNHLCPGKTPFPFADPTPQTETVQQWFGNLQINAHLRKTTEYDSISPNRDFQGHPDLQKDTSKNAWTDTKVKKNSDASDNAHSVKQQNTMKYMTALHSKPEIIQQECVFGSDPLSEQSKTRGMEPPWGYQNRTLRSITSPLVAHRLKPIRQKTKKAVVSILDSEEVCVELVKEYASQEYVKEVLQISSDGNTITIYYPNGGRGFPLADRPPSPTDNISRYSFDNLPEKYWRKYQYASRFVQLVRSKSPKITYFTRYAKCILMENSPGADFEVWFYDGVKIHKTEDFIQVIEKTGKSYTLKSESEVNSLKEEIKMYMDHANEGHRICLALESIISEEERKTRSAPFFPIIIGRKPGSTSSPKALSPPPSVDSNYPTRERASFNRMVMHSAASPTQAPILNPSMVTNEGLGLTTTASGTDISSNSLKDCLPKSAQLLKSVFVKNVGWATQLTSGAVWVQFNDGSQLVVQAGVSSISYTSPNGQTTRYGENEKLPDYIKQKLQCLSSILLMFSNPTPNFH

Assay [5] has as its target Rho-associated protein kinase 2 (Homo sapiens, UniProt O75116).
Assay [6] concerns the target T4, Signal recognition particle receptor subunit alpha (Homo sapiens, UniProt P08240).
T4 sequence (P08240 whole entry): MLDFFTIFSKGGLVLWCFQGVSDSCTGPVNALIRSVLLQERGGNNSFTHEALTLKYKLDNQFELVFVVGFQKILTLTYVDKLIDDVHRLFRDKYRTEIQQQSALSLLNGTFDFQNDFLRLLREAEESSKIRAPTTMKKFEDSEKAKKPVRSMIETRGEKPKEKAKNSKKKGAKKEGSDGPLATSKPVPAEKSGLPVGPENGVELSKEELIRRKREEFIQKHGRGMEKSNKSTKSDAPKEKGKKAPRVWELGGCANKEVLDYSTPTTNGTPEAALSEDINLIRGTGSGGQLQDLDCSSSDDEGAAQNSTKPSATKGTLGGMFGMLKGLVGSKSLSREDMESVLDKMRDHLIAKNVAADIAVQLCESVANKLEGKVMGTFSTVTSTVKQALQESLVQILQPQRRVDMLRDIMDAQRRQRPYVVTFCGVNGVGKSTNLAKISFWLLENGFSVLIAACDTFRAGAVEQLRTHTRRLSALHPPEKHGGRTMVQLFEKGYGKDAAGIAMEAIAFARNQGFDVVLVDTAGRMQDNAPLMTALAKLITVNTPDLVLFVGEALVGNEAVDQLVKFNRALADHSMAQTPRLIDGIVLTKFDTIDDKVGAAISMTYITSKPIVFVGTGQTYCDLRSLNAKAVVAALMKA

In assay [7] the target is Elongation factor Tu, mitochondrial (Homo sapiens, UniProt P49411).

The source made the active and inactive calls.
Further: in the data inactive means no Kd found up to 30 µM.

Deoxycytidine kinase, sequence (P27707 whole entry): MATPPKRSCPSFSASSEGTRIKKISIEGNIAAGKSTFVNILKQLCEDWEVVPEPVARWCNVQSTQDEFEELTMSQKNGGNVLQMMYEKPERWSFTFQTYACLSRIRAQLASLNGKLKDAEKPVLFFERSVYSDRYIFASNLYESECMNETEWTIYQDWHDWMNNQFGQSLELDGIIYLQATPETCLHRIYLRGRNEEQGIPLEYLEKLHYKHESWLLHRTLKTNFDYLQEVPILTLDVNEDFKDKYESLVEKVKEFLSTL
Rho-associated protein kinase 2, sequence (O75116 whole entry): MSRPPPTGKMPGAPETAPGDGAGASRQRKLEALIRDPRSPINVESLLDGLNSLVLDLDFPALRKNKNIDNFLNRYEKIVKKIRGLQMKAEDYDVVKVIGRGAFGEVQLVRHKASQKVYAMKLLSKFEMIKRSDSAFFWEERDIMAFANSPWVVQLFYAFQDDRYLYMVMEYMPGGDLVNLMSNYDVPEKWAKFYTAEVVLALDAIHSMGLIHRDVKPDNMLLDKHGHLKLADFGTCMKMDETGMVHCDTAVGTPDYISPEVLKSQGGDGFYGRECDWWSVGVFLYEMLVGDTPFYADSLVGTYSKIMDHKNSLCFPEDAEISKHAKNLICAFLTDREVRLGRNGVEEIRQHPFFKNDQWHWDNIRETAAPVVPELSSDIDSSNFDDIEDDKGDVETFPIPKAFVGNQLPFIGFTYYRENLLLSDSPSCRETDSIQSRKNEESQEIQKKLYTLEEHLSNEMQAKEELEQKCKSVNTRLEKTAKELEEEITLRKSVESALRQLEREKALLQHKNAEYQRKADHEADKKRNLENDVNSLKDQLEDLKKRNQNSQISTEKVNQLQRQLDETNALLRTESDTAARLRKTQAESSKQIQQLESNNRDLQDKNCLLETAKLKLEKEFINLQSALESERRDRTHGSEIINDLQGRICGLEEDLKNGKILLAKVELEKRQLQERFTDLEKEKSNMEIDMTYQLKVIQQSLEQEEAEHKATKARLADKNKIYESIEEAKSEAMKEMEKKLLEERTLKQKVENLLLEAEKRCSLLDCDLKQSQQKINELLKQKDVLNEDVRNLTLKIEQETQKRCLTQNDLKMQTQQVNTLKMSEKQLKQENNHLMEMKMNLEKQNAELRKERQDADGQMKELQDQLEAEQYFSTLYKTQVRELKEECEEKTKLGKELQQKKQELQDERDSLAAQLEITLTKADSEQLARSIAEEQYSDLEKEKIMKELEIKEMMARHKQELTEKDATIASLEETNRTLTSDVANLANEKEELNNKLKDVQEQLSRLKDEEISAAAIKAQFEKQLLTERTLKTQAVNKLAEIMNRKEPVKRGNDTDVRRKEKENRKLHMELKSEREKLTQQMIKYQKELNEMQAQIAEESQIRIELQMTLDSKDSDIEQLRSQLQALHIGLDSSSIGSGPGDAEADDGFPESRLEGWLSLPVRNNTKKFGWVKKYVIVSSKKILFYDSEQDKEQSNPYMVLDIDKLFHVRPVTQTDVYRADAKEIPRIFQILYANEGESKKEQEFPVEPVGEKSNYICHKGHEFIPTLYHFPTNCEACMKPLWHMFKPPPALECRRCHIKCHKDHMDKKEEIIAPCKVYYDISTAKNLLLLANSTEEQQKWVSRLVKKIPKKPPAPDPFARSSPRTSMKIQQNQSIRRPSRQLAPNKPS

For orientation: Kd means the concentration at which binding is half-saturated. Regarding `C[C@@H](Nc1cc(F)cc(F)c1)c1cc(C(=O)N(C)C)cc2c(=O)cc(N3CCOCC3)oc12` [AZD-8186], the Kd in assay [1], in assay [2], in assay [3], in assay [4], in assay [5] and in assay [6] was > 30 µM (inactive) each time. The Kd in assay [7] was > 30 µM (inactive).

On to `C[C@@H](c1ccc2nccn2c1)n1nnc2ncc(-c3cnn(C)c3)nc21` [SAVOLITINIB], for which the Kd is > 30 µM (inactive) in assay [1]; 0.206 µM (active) in assay [2]; > 30 µM (inactive) in assay [3]; > 30 µM (inactive) in assay [5]; > 30 µM (inactive) in assay [6]; > 30 µM (inactive) in assay [7].

`CNC(=O)CN1CCC(Oc2cc3c(Nc4cccc(Cl)c4F)ncnc3cc2OC)CC1` [SAPITINIB]: the Kd in assay [1], in assay [2], in assay [3], in assay [4], in assay [5] and in assay [7] was > 30 µM (inactive) throughout.

As for `O=C(c1ccc(F)c(F)c1Nc1ccc(I)cc1F)N1CC(O)([C@@H]2CCCCN2)C1` [COBIMETINIB], the Kd in assay [1], in assay [2], in assay [4], in assay [5], in assay [6] and in assay [7] was > 30 µM (inactive) each time.

For `Cc1nc(N)sc1-c1ccnc(Nc2ccc(N3CCOCC3)cc2)n1` [CYC-116], the Kd in assay [1] is > 30 µM (inactive); in assay [2], 0.648 µM (active); in assay [3] it was 0.007 µM; in assay [6], > 30 µM (inactive); in assay [7], > 30 µM (inactive).

As for `Cc1cc(Nc2cc(N3CCN(C)CC3)nc(/C=C/c3ccccc3)n2)n[nH]1` [ENMD-2076], the Kd in assay [1] was > 30 µM (inactive); in assay [2], > 30 µM (inactive); in assay [6], 0.008 µM; in assay [7], > 30 µM (inactive).

On to `O=C(Nc1cccc(Cl)c1)Nc1ncc(CCNc2ncnc3ccsc23)s1` [SNS-314], for which the Kd in assay [1], in assay [2], in assay [3] and in assay [7] was > 30 µM (inactive) throughout.

For `Nc1nc(N)c2nc(-c3cccc(O)c3)c(-c3cccc(O)c3)nc2n1` [TG100-115], the Kd in assay [1] was 0.012 µM (active); in assay [2], > 30 µM (inactive); in assay [6], > 30 µM (inactive); in assay [7], > 30 µM (inactive).

With `CN1CCN(c2ccc3nc(-c4c(N)c5c(F)cccc5[nH]c4=O)[nH]c3c2)CC1` [DOVITINIB], the Kd is > 30 µM (inactive) in assay [1], 3.01 µM (active) in assay [2] and > 30 µM (inactive) in assay [7].

Consider `C1=C/COCc2cc(ccc2OCCN2CCCC2)Nc2nccc(n2)-c2cccc(c2)COC/1` [PACRITINIB], for which the Kd in assay [1], in assay [3], in assay [4], in assay [5], in assay [6] and in assay [7] was > 30 µM (inactive) in each case.

Consider `Cn1ncc(Cl)c1-c1cc(C(=O)N[C@H](CN)Cc2cccc(F)c2)sc1Cl` [AFURESERTIB], for which the Kd in assay [1] is > 30 µM (inactive); in assay [2], > 30 µM (inactive); in assay [3], > 30 µM (inactive); in assay [4], > 30 µM (inactive); in assay [5], 4.73 µM (active); in assay [7], > 30 µM (inactive).

As to `OCCn1cc(-c2cnc3nnn(Cc4ccc5ncccc5c4)c3n2)cn1` [PF-04217903], the Kd in assay [1], in assay [2], in assay [3], in assay [4], in assay [5] and in assay [7] was > 30 µM (inactive) each time.

Turning to `CCCS(=O)(=O)Nc1ccc(F)c(C(=O)c2c[nH]c3ncc(-c4ccc(Cl)cc4)cc23)c1F` [VEMURAFENIB], the Kd in assay [1], in assay [2], in assay [3], in assay [4], in assay [5] and in assay [7] was > 30 µM (inactive) each time.

Turning to `COC(=O)[C@@]1(O)C[C@H]2O[C@]1(C)n1c3ccccc3c3c4c(c5c6ccccc6n2c5c31)C(=O)NC4` [K-252A], the Kd in assay [1] is > 30 µM (inactive); in assay [2], 4.03 µM (active); in assay [3], > 30 µM (inactive); in assay [4] it was 0.073 µM (active); in assay [5], > 30 µM (inactive); in assay [7] it was > 30 µM (inactive).

As to `CCn1c(-c2nonc2N)nc2c(C#CC(C)(C)O)ncc(OC[C@H]3CCCNC3)c21` [GSK-690693], the Kd in assay [1], in assay [2], in assay [6] and in assay [7] was > 30 µM (inactive) in each case.

Consider `COc1cc2nccc(Oc3ccc(NC(=O)NC4CC4)c(Cl)c3)c2cc1C(N)=O` [LENVATINIB], for which the Kd in assay [1] was > 30 µM (inactive); in assay [2], 1.52 µM (active); in assay [3] it was > 30 µM (inactive); in assay [5] it was > 30 µM (inactive); in assay [6], > 30 µM (inactive); in assay [7] it was > 30 µM (inactive).

For the compound `Cc1cn(-c2cc(NC(=O)c3ccc(C)c(Nc4nccc(-c5cccnc5)n4)c3)cc(C(F)(F)F)c2)cn1` [NILOTINIB], the Kd was > 30 µM (inactive) in assay [1], 1.48 µM (active) in assay [2], > 30 µM (inactive) in assay [6] and > 30 µM (inactive) in assay [7].

Take `CNC(=O)c1ccc(C)c(-n2c(C)cc(OCc3ccc(F)cc3F)c(Br)c2=O)c1` [PH-797804]: the Kd in assay [1], in assay [2], in assay [3], in assay [4] and in assay [7] was > 30 µM (inactive) each time.
